PMC4633953, “FR171456 is a specific inhibitor of mammalian NSDHL and yeast Erg26p” (Nature Communications, 2015)

Legend:
[1] = tested on: F. solani; assay: Combination with clinical antifungal agents (Loewe synergy, growth by OD530); assay type: cell-based; conditions: in presence of FR171456 6.67 and 20 μM
Method: incubated for 24 h in increasing combined doses of FR171456 and Amphotericin B, and growth
assessed by OD530. (a) Normalised growth rates plotted as % inhibition of growth. (b) Loewe excess
heat map showing difference between predicted scores based upon the addition of each agent
alone and the actual values detected plotted as difference in % of inhibition. (c) Loewe isobologram
- a comparison of the doses of each compound needed to achieve 50% inhibition of proliferation.

[2] = tested on: S. cerevisiae (BY4743 strain); assay: Yeast growth inhibition dose response (OD600); assay type: cell-based; conditions: Saccharomyces cerevisiae, 14 h, BY4743, 14 h, 30 °C, YPD, 2% DMSO
Method: Figure 2 FR171456 targets Erg26p in S. cerevisiae. (a) Structures of FR171456, and two related triterpenes (compound 1, compound 2). (b) Duplicate 12-point Dose response curves of wild-type diploid yeast with three compounds in a. Strain BY4743 was grown for 14 h at 30 °C in YPD media with 2% DMSO containing a dilution series of FR171456: black; Compound-1: light grey circles, and Compound-2: light grey squares. Y axis: OD600 absorbance indicating yeast growth, x axis: compound concentrations (log10 μM). (c) Haploinsufficiency and homozygous profiling (HIP resp. HOP) for FR171456 at 4 μM. Each mutant strain in the pool is represented by a circle (non-essential genes) or a square (essential genes). The, y axis represents strain sensitivity and x axis represents z-score (specificity). In (d), the z-scores of the HIP pool strains (y axis) plotted against increasing doses of FR171456 (x axis; μM). (e) Relative compound sensitivity profile of the erg26Δ/ERG26 strain across HIP experiments performed with 1,800 diverse small molecule yeast proliferation inhibitors. TEXT PRINTED IN THE PICTURE: (a) FR171456: MW 516.68; S.c. […] IC50 >200 μM | (a) Compound 2: MW 532.68; S.c. IC50 >200 μM

[3] = target: T1, Erg26p (Saccharomyces cerevisiae, UniProt P53199); assay: In vitro microsomal Erg26p activity assay (GC-MS)
T1 sequence (P53199 1-349): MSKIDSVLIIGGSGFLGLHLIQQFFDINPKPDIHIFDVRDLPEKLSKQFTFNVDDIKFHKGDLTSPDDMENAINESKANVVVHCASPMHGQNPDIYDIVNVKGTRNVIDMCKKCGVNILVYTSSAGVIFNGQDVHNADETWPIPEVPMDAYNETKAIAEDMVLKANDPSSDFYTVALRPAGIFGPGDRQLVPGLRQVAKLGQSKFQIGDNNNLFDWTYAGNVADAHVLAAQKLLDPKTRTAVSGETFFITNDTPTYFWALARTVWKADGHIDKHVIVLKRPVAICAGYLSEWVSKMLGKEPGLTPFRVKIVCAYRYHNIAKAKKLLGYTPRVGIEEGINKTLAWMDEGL
Method: To test this hypothesis an in vitro microsomal Erg26p activity assay[30] was used. Erg26p activity was directly assessed in the presence of increasing concentrations of FR171456 (10 nM–0.1 mM) in the presence of 150 μM carboxysterol substrate (Fig. 1c) and the cofactor NAD^+ (0.5 mM) followed by GC-MS detection of the product 4α-methyl-cholest-8,24-dien-3-one.
Wild-type yeast (FL200) microsomes were prepared as follows. Yeast cells were disrupted by glass bead homogenization (0.45-mm diameter) in 100 mM phosphate buffer (pH 7.5) containing 1.5 mM reduced glutathione and 30 mM nicotinamide for 8 min at 0 °C[44]. The cell extract was obtained by centrifugation at 10,000 × g for 20 min. Microsomes were then isolated by centrifuging the cell extract supernatant at 100,000 × g for 90 min. The resulting microsomal pellet was resuspended in 100 mM phosphate buffer (pH 7.5) containing 3 mM reduced glutathione and 20% glycerol (v/v) using an Elvehjem–Potter homogenizer. Yeast microsomes (1.2 mg of protein) were incubated in the presence of 4α-carboxy-4β-methyl-cholest-8,24-dien-3β-ol (50–300 mM) and NAD^+ (0.5 mM) for 35–45 min at 30 °C. After addition of coprostanone (2–6 μg) as internal standard, the reactions were extracted as described previously[12]. The extract was analysed by TLC on silica gel and eluted twice with CH2Cl2. The fraction migrating between a standard of 4-desmethyl-sterone (RF= 0.50) and 4,4-dimethyl-sterone (RF=0.70) was eluted and analysed using a GC-MS spectrometer (Agilent 5973 N).
In the case of inhibition assays, microsomes were incubated for 35–45 min at 30 °C in the presence of 4α-carboxy-4β-methyl-cholest-8,24-dien-3β-ol (50–300 mM) and a range of inhibitor concentration (0.01–100 μM) from which a dose–response curve was obtained allowing the corresponding I50 values to be determined.
The GC-MS spectrometer (Agilent 5973 N) was equipped with an ‘on column' injector and a capillary column (30 × 0.25 mm) coated with DB5 (H2 flow rate of 2 ml min^−1). The temperature program included a 30 °C min^−1 increase from 60 °C to 240 °C, and followed by a 2 °C/min increase from 240 °C to 280 °C. The areas of the GC peaks of coprostanone (tR=1.000) and of the produced 4α-methyl-cholest-8,24-dien-3-one (tR=1.139), corrected from endogenous component of the same tR (1.139) determined in the blank (boiled microsomes), allowed the rate of transformation of 4α-carboxy-4β-methyl-cholest-8,24-dien-3β-ol to be measured. Under these conditions, the estimated limit of detection of the 3βHSD/D activity was 0.1 nmol h^−1 mg^−1.

[4] = target: T1, Erg26p; conditions: wild-type yeast Erg26p ref 32; cited from earlier work
[5] = tested on: ergosterol pathway intermediates in C. albicans SC5314; assay: Focused metabolomics: 13C-labelled ergosterol pathway intermediates in C. albicans; assay type: cell-based; conditions: increasing doses
Method: For ^13C- labelling studies, the wild type C. albicans strain SC5314 was obtained from ATCC (Manassas, VA) and was cultured at 30 °C in YPD broth (1% yeast extract, 2% peptone, 2% dextrose) or Synthetic Medium (3% glycerol, 0.1% glucose, 65 mM NH4Cl, 1.7 mM NaCl, 7 mM KH2PO4, 1 mM CaCl2, 0.5 mM MgSO4).
Approximately 1.25 × 10^8 C. albicans cells from a saturated YPD culture were inoculated into 100 ml Synthetic Medium (SM) and grown at 30 °C to an OD of 1.0. Cells were washed once in modified SM (25 mM KPO4 pH 7.0, with glucose omitted) and suspended to 5 OD600 units per ml in modified SM.
Labelling reactions were performed in 12-ml glass tubes with PTFE-lined caps (Corning) and containing 1 ml cell suspension (∼6 × 10^7 cells), 10 μl DMSO or 10 μl compound dissolved in DMSO, 12 μl 1M D-Glucose (U^-13C6 glucose), and 10 μl 1 M (1,2^-13C2) sodium acetate (Cambridge Isotope Laboratories, Inc). Before LC-MS analysis, dried lipid extracts were dissolved in 500 μl methanol, vortexed and sonicated for 10 min.
Squalene, ergosterol, lanosterol and zymosterol were quantified using the tandem mass spectrometer API4000 triple quadrupole (AB Sciex) with atmospheric pressure chemical ionization (APCI), interfaced to an Agilent LC.
Cells (∼6 × 10^7) and compounds were preincubated 15 min at 30 °C (without shaking) before the addition of labelled substrates. Labelling was performed at 30 °C with shaking for 4 h. Reactions were stopped by adding 1 ml 30% KOH, 1 ml 100% ethanol, and 0.2 ml 2% pyrogallol. Samples were mixed and then heated at 80 °C for 30 min, then cooled to room temperature. Non-saponifiable lipids were extracted two times in petroleum ether, washed with water, dried under nitrogen gas and stored at −80 °C.
For compound calibration, 2 μM solutions in 0.1% formic acid were directly infused into the mass spectrometer. Ergosterol, lanosterol and zymosterol undergo dehydration and their molecular species are detected as [M+H-H2O]^+ while squalene is detected as [M+H]^+. Supplementary Table 4 lists the multiple reaction monitoring parameters of the sterols and squalene, as well as the ^13C incorporated metabolites. The mass spectrometer source parameters are the following: CUR=40, GS1=60, NC=4.5. TEM=450 CAD=4. A mobile phase of 0.2% formic acid in methanol and isocratic run at 0.4 ml min^−1 was employed to separate the metabolites on a Waters XBridge C18 3.5 μm 2.1 × 50 mm column. The run time was 4.5 min.

With `C[C@@H]1[C@H](O)[C@@H](C)/C=C/C=C/C=C/C=C/C=C/C=C/C=C/[C@H](O[C@@H]2O[C@H](C)[C@@H](O)[C@H](N)[C@@H]2O)C[C@@H]2O[C@](O)(C[C@@H](O)C[C@@H](O)[C@H](O)CC[C@@H](O)C[C@@H](O)CC(=O)O[C@H]1C)C[C@H](O)[C@H]2C(=O)O` [Amphotericin B, reference compound] the “amount of Amphotericin B required for maximal inhibition” value [1] was “halved”.

For `C=C(CCC(C)C1CCC2C1(C)CC(O)C13CC14C(=O)CC(O)C(C)(C(=O)NCc1ccccc1)C4C(=O)CC23O)C(C)C` [Compound 1, (1R,2aR,3R,5aR,5bS,7aR,8S,9S,11aS,12aR)-N-benzyl-1,5b,9-trihydroxy-2a,8-dimethyl-3-((R)-6-methyl-5-methyleneheptan-2-yl)-7,11-dioxohexadecahydrocyclopenta[a]cyclopropa[e]phenanthrene-8-carboxamide], the IC50 [2] was over 200 µM, the IC50 [3] was over 500 µM and the “decrease of inhibition relative to FR171456” value [3] was over 300 fold.

Compound `C=C(CCC(C)C1CCC2C1(C)CC(O)C13CC14C(=O)CC(O)C(C)(C(=O)O)C4C(=O)CC23O)C(C)CO` [Compound 2, (1R,2aR,3R,5aR,5bS,7aR,8S,9S,11aS,12aR)-1,5b,9-trihydroxy-3-((2R)-7-hydroxy-6-methyl-5-methyleneheptan-2-yl)-2a,8-dimethyl-7,11-dioxohexadecahydrocyclopenta[a]cyclopropa[e]phenanthrene-8-carboxylic acid] has an IC50 [2] of over 200 µM.

In the case of `CC(C)=CCC[C@@H](C)[C@H]1CC[C@H]2C3=C(CC[C@]12C)[C@@]1(C)CC[C@H](O)[C@@](C)(C(=O)O)C1CC3` (stereo partly drawn) [carboxysterol substrate, 4α-carboxy-4β-methyl-cholest-8,24-dien-3β-ol], the Km [4] is listed as 550 µM.

With `OC(Cn1cncn1)(Cn1cncn1)c1ccc(F)cc1F` [fluconazole, reference compound] the “effect on 13C-labelled ergosterol” value [5] was “decrease”, the “effect on 13C-labelled lanosterol” value [5] was “accumulation” and the “effect on 13C-labelled zymosterol” value [5] was “decrease”.
